# Results reported in PMC5304334, “Antifouling potential of Nature-inspired sulfated compounds” (Scientific Reports, 2017).
# pEC50: −log10 of the molar value. “Also recorded” adds a separate entry of the source. Read-outs that look alike come from different tables or passages of the source.
# What was measured:
# [1] = tested on: Mytilus galloprovincialis plantigrades; assay: Anti-settlement bioassay with mussel plantigrades (effectiveness and mortality); type: in vivo; details: for Anti-settlement activity in screening (result in words): 250 and 50 μM, p < 0.05 Dunnett; for pEC50: 1.56–500 μM
# Procedure: (§1) M. galloprovincialis juvenile (0.5 cm shell length approximately) aggregates were collected from mussel beds from the intertidal rocky shore, during low neap tides at Memória beach, Matosinhos, Portugal (41°13′59″N; 8°43′28″W), and immediately transported to the laboratory. M. galloprovincialis plantigrade post-larvae (0.5–2 mm) were screened among the small mussel aggregates in a binocular magnifier (Olympus SZX2-ILLT), gently washed with filtered seawater to remove organic debris and sand particles and isolated in a petri dish with filtered seawater immediately before the bioassays.
# (§2) For the screening bioassay, competent M. galloprovincialis plantigrades (showing exploring behavior, ie, moving their foot searching for the appropriate substrate to settle) were selected and exposed to the series of sulfated compounds 1–13 at two concentrations (250 and 50 μM) in 24-well microplates for 15 h, at 18 ± 1 °C, in the darkness. Bioassays time frame was selected based on preliminary bioassays to ensure that the response measured is reflecting the compounds effect. Test solutions were prepared in filtered seawater (previously treated by UV light, and carbon filters and mechanically filtered with […] filter before use) and obtained by dilution of the compounds stock solutions (50 mM) in ultra-pure water. Four well replicates were used per condition with five plantigrades per well and 2.5 mL of test solution. A negative control, with ultra-pure water was included in all bioassays, as well as a positive control with 5 μM CuSO4 (a potent AF agent). At the end of the exposure period, the anti-settlement activity was determined by the presence/absence of byssal threads produced by each individual efficiently attached for all the conditions tested.
# (§3) Data from the anti-settlement and antibacterial screenings were analyzed using a one-way analysis of variance (ANOVA) followed by a Dunnett test against the control (p < 0.05). Semi-maximum response concentration that inhibited 50% larval settlement (EC50), semi-maximum response concentration that inhibited 20% bacterial growth (EC20) and the median lethal dose (LC50) for each bioactive compound were assessed using Probit regression analysis. Pearson Goodness-of-fit (Chi-Square) significance was considered at p < 0.05 for all analyses, and 95% lower and upper confidence limits [95% LCL; UCL] were presented. Therapeutic ratio (LC50/EC50) was used to evaluate the effectiveness vs toxicity of compounds[31][53][54]. The software IBM SPSS Statistics 21 was used for statistical analysis.
# [2] = as above; type: in vivo, Mytilus galloprovincialis; details: Mytilus galloprovincialis, in vivo, other: immersion in test solution in filtered seawater; mortality of plantigrades, 15 h, up to 500 μM; read-out: LC50, the median lethal dose
# Procedure: as §1, §2, §3
# [3] = Seawater stability under AF assay conditions (HPLC-DAD); type: physicochemical; details: 250 μM in filtered seawater, 15 h, 18 °C
# Procedure: High performance liquid chromatography with Diode-Array Detection (HPLC-DAD) analyses were carried out on a System SMI Pump Series II (Gloucester, UK) equipped with a Rheodyne 7125 injector fitted with a 20 μL loop, a TSP-UV6000LP detector, and a Chromquest for Windows NT integrator and using a C-18 Nucleosil column (5 μm, 250 × 4.6 mm I.D.), from Macherey-Nagel (Düren, Germany); acetonitrile was of HPLC grade from Merck. HPLC ultrapure water was generated by a Milli-Q system (Millipore, Bedford, MA, USA). The mobile phase used was water with tetrabutylammonium bromide (TBAB, 25 mM) and acetonitrile (38:62) at a constant flow rate of 1.0 mL.min^−1. The mobile phase was filtered ([…]) and degassed for 15 min in an ultrasonic bath before use.
# The seawater stability of the three most promising compounds 2, 6, and 12 in the time period (15 h) and temperature (18 °C) of the AF assay was evaluated by HPLC-DAD. Compounds were analyzed at 250 μM (final concentration) in filtered seawater ([…]). Incubations were performed in glass HPLC vials and three independent samples plus respective blank (filtered seawater) and controls (time zero - freshly prepared solutions of compounds) were analyzed.
# [4] = target: T1, Electrophorus electric acetylcholinesterase Type V-S (Electrophorus electricus, UniProt O42275); assay: In vitro acetylcholinesterase activity (Ellman); type: biochemical; details: 50 μM compound
# T1 construct: purchased SIGMA C2888
# T1 sequence (O42275 24-633): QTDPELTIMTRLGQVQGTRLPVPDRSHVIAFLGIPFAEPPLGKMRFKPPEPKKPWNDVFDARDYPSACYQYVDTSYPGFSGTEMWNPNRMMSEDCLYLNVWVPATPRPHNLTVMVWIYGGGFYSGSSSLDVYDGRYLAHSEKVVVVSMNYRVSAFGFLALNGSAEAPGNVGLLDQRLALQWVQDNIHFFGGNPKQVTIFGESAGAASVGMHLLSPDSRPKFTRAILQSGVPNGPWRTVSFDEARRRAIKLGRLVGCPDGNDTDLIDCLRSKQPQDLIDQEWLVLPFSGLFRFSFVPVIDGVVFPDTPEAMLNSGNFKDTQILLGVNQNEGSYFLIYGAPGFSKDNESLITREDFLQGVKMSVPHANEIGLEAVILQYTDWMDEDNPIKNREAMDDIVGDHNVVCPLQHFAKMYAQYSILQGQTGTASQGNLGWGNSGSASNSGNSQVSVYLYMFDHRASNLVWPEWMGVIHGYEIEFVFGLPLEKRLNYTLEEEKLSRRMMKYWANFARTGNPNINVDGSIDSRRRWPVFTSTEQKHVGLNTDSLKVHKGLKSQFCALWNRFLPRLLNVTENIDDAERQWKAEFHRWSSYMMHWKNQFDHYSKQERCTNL
# Procedure: The potential of compounds 2, 6 and 12 to inhibit acetylcholinesterases activity was evaluated using Electrophorus electric acetylcholinesterase Type V-S (SIGMA C2888, E.C. 3.1.1.7), according to Ellman et al.[47] with some modifications. Briefly, reaction solution containing phosphate buffer 1 M pH 7.2, dithiobisnitrobenzoate (DTNB) 10 mM (acid dithiobisnitrobenzoate and sodium hydrogen carbonate in phosphate buffer) and […] 0.075 M was added to pure acetylcholinesterase enzyme (0.25 U/mL) and each test sulfated compound (final concentration of 50 μM) in quadruplicate. The optical density was measured at 412 nm in a microplate reader during 5 min at 25 °C. A negative control (B) with ultra-pure water and a positive control (C+) with 20 mM eserine also included.
# [5] = tested on: Agaricus bisporus tyrosinase; assay: In vitro tyrosinase inhibition assay; type: biochemical; details: 50 μM compound
# Procedure: Tyrosinase inhibition assays were conducted using Agaricus bisporus tyrosinase (EC 1.14.18.1) according to Adhikari et al.[50] with slight modifications. The enzymatic reaction follows the catalytic conversion of L-Dopa to dopaquinone and the formation of dopachrome by measuring the absorvance at 475 nm. Briefly, tyrosinase (25 U/mL) is added to 50 mM fosfate buffer pH 6.5 and the sulfated compound at 50 μM. The enzymatic activity was triggered by the addition of L-dopa (25 mM). Kojic acid was included as positive control and ultra-pure water as negative control.
# [6] = tested on: Artemia salina nauplii; assay: Artemia salina nauplii lethality (ecotoxicity) test; type: in vivo
# Procedure: Selected sulfated compounds with AF potential 2, 6, and 12 were tested for general toxicity to nontarget species using the brine shrimp (Artemia salina) nauplii lethality test[51]. Briefly, A. salina eggs were allowed to hatch in nutrient–enriched seawater as nauplii for approximately 48 h at 25 °C. Toxicity tests were performed in the darkness in 96-wells microplates with eight replicates per condition and 15–20 nauplii per well. Serial diluted test solutions of the most promising sulfated AF compounds (25, 50, and 250 μM) were prepared in filtered seawater. K2Cr2O7 (13.6 μM) was included as positive control and ultra-pure water as negative control. Percentage of mortality was determined at 48 h of exposure.
# [7] = Luminescent Vibrio fischeri ecotoxicity assay (ISO11348); type: cell-based; details: Vibrio fischeri; read-out: LC50 Vibrio fischeri
# Procedure: (§4) After 5, 15 and 30 min of exposure, the light emitted as a by-product of Vibrio fischeri cellular respiration was measured at 490 nm. Any inhibition of cellular activity results in a decreased rate of respiration and a corresponding decrease in the rate of luminescence. The decrease of bacterial luminescence measured after 5, 15 or 30 min of exposition was used as test endpoint. Luminescence was measured using a LUMIStox photometer from DR LANGE, after a contact time of 15 min and 30 min at 15 ± 1 °C, taking into account a correction factor, fk, which is a measure of intensity change of control samples during the exposure time.
# (§5) The pH of all samples was within the interval 6.0–8.5.
# [8] = tested on: Vibrio fischeri (NRRL-B-11177); assay: as above; type: cell-based; details: for EC50: Aliivibrio fischeri
# Procedure: as §4, §5
# [9] = Water solubility (statement in discussion); type: physicochemical
# [10] = Mytilus galloprovincialis, 15 h, plantigrades, 15 h, 18 °C, read-out: EC50, minimum concentration that inhibited 50% of larval settlement
# [11] = V. fischeri luminescence, 30 min contact
smiles,measurement,setting,value
"C[C@@H]1O[C@@H](OC[C@H]2O[C@@H](Oc3c(-c4ccc(OCCOS(=O)(=O)O)c(OCCOS(=O)(=O)O)c4)oc4cc(OCCOS(=O)(=O)O)cc(O)c4c3=O)[C@H](OS(=O)(=O)O)[C@@H](OS(=O)(=O)O)[C@@H]2OS(=O)(=O)O)[C@H](OS(=O)(=O)O)[C@H](OS(=O)(=O)O)[C@H]1OS(=O)(=O)O [Compound 3, 3″,4″-bis(2-sulfateethoxy)-7-(2-sulfateethoxy)-rutin 2″,2″′,3′,3″′,4′,4″′,7-sulfate]",Anti-settlement activity in screening (result in words),"[1]; 15 h, versus negative control",did not show notable activity
O=c1c2ccc(O[C@@H]3O[C@H](COS(=O)(=O)O)[C@@H](OS(=O)(=O)O)[C@H](OS(=O)(=O)O)[C@H]3OS(=O)(=O)O)cc2oc2cc(O[C@@H]3O[C@H](COS(=O)(=O)O)[C@@H](OS(=O)(=O)O)[C@H](OS(=O)(=O)O)[C@H]3OS(=O)(=O)O)ccc12 [Compound 6],LC50 at 15 h,[2],> 500 µM
same,Anti-settlement activity in screening (result in words),"[1]; 15 h, versus negative control",significant anti-settlement responses at 50 μM; also recorded: highly active
same,pEC50,[1]; [10],4.63
same,EC50,[1]; [10],31.7 mg/L
same,Concentration range with significant anti-settlement activity,"[1]; concentration-response 1.56–500 μM, versus negative control",25 to 500 µM
same,Concentration detected relative to the initial one (seawater stability),[3],at least 95%
same,Acetylcholinesterase activity inhibition,[4],not inhibited
same,Tyrosinase activity inhibition,[5],not inhibited
same,Mortality of Artemia salina,[6]; 250 μM,< 10%
same,Mortality of A. salina nauplii,"[6]; 25, 50, and 250 μM, 48 h",less than 10%
same,Toxicity to A. salina,"[6]; 25, 50, and 250 μM, 48 h, versus negative control",no toxicity
same,CC50,[7],> 1000 mg/L
same,Inhibition of light radiation emitted by V. fischeri,"[8]; 15 min or 30 min contact, up to 1000 mg/L",no inhibition of light radiation emitted was found; also recorded: lack of light radiation inhibition
same,EC50,"[8]; NRRLB11177, 0.25 h, V. fischeri luminescence, 15 min contact, read-out: EC50 15min",> 1000 mg/L
same,EC50,"[8]; NRRLB11177, 0.5 h, V. fischeri luminescence, 30 min contact, read-out: EC50 30min",> 1000 mg/L
same,Water solubility,[9],highly water soluble
"O=c1c2ccc(OCc3cn([C@@H]4O[C@H](COS(=O)(=O)O)[C@H](OS(=O)(=O)O)[C@H](OS(=O)(=O)O)[C@H]4OS(=O)(=O)O)nn3)cc2oc2cc(OCc3cn([C@@H]4O[C@H](COS(=O)(=O)O)[C@H](OS(=O)(=O)O)[C@H](OS(=O)(=O)O)[C@H]4OS(=O)(=O)O)nn3)ccc12 [Compound 7, 3,6-bis(1-(1-(β-D-galatopyranosyl)-1H-1,2,3-triazole-4-yl)methoxy)xanthone persulfate]",Anti-settlement activity in screening (result in words),"[1]; 15 h, versus negative control",not active
"O=C(/C=C/c1ccc(OS(=O)(=O)O)c(OS(=O)(=O)O)c1)O[C@@H]1C[C@](OS(=O)(=O)O)(C(=O)O)C[C@@H](OS(=O)(=O)O)[C@H]1OS(=O)(=O)O [Compound 13, chlorogenic acid persulfate]",Anti-settlement activity in screening (result in words),"[1]; 15 h, versus negative control",much less potent than compound 12
"C[C@@H]1O[C@@H](OC[C@H]2O[C@@H](Oc3c(-c4ccc(O)c(O)c4)oc4cc(O)cc(O)c4c3=O)[C@H](O)[C@@H](O)[C@@H]2O)[C@H](O)[C@H](O)[C@H]1O [Compound 14, rutin, reference compound]",Anti-settlement activity in screening (result in words),"[1]; 15 h, versus negative control",did not show significant anti-settlement activity; also recorded: not active
"O=C(O)c1cc(O)c(O)c(O)c1 [Compound 15, gallic acid, reference compound]",Anti-settlement activity in screening (result in words),"[1]; 15 h, versus negative control",did not show significant anti-settlement activity; also recorded: not active
N#Cc1c(-c2ccc(Cl)cc2)[nH]c(C(F)(F)F)c1Br [ECONEA®],Mortality/toxicity to target species plantigrades,[1]; all tested concentrations up to 500 μM,showed some toxicity at the higher concentrations tested
same,LC50,"[1]; mortality of plantigrades, 15 h, up to 500 μM, read-out: LC50, the median lethal dose",108 µM
same,"EC50, minimum concentration that inhibited 50% of larval settlement","[1]; plantigrades, 15 h, 18 °C",1.40 mg/L
same,pEC50,"[1]; plantigrades, 15 h, 18 °C, read-out: EC50, minimum concentration that inhibited 50% of larval settlement",5.40
"[K+].[K+].[O]=[Cr](=[O])([O-])[O][Cr](=[O])(=[O])[O-] [K2Cr2O7, Potassium dichromate, reference compound]",EC50 30min,[8]; [11],5.67 mg/L
same,EC80 30min,[8]; [11],16.73 mg/L
